The supplement of paper PMC11061612

Legend:
Assay in all cases: Bliss excess, mean over the matrix (fraction); higher = more synergy
CAS-1 (Glioblastoma) = system: CAS-1 (Glioblastoma)
Outline: (§1)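 Bliss excess equals the observed combination effect minus the expected value EA + EB − EA·EB, where EA and EB are the effects of each agent alone. Combination Emax is the second-highest inhibition within the matrix. Inhibition was scaled from CellTiter-Glo 2.0 luminescence, with 0 set by vehicle wells and 1 by blank wells, after 72 hours of two-drug dosing of cells plated in 1536-well plates.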

[1] = system: MDST8 (Colorectal Carcinoma)
Outline: as §1

[2] = system: KARPAS-422 (B-Cell Non-Hodgkin's Lymphoma)
Outline: as §1

[3] = system: COLO-320-HSR (Colorectal Carcinoma)
Outline: as §1

[4] = system: NCI-H2141 (Small Cell Lung Carcinoma)
Outline: as §1

[5] = system: A549 (Lung Adenocarcinoma)
Outline: as §1

Hs-445 (Non-Cancerous) = system: Hs-445 (Non-Cancerous)
Outline: as §1

[6] = system: BICR22 (Oral Cavity Carcinoma)
Outline: as §1

[7] = system: ECC10 (Gastric Carcinoma)
Outline: as §1

NCI-H2591 (Mesothelioma) = system: NCI-H2591 (Mesothelioma)
Outline: as §1

[8] = system: CCK-81 (Colorectal Carcinoma)
Outline: as §1

FU97 (Gastric Carcinoma) = system: FU97 (Gastric Carcinoma)
Outline: as §1

[9] = system: OS-RC-2 (Kidney Carcinoma)
Outline: as §1

[10] = system: SK-MG-1 (Low Grade Glioma)
Outline: as §1

PA-1 (Ovarian Carcinoma) = system: PA-1 (Ovarian Carcinoma)
Outline: as §1

[11] = system: ONS-76 (Other Solid Carcinomas)
Outline: as §1

[12] = system: NCI-H1693 (Lung Adenocarcinoma)
Outline: as §1

[13] = system: TT2609-C02 (Thyroid Gland Carcinoma)
Outline: as §1

U-2-OS (Osteosarcoma) = system: U-2-OS (Osteosarcoma)
Outline: as §1

[14] = system: SISO (Cervical Carcinoma)
Outline: as §1

Row | Compound | Bliss excess (CAS-1 (Glioblastoma)) | Bliss excess [1] | Bliss excess [2] | Bliss excess [3] | Bliss excess [4] | Bliss excess [5] | Bliss excess (Hs-445 (Non-Cancerous)) | Bliss excess [6] | Bliss excess [7] | Bliss excess (NCI-H2591 (Mesothelioma)) | Bliss excess [8] | Bliss excess (FU97 (Gastric Carcinoma)) | Bliss excess [9] | Bliss excess [10] | Bliss excess (PA-1 (Ovarian Carcinoma)) | Bliss excess [11] | Bliss excess [12] | Bliss excess [13] | Bliss excess (U-2-OS (Osteosarcoma)) | Bliss excess [14]
1 | CN(CCO)CC[C@H](CSc1ccccc1)Nc1ccc(S(=O)(=O)NC(=O)c2ccc(N3CCC([C@@H](O)c4ccccc4-c4ccc(Cl)cc4)CC3)cc2)cc1S(=O)(=O)C(F)(F)F [AZD4320] + C1CN(CCC1(C(=O)N[C@@H](CCO)C2=CC=C(C=C2)Cl)N)C3=NC=NC4=C3C=CN4 [Capivasertib] (first compound max 1 µM, 7x7, partner max 3 µM) | -0.078 | -0.0482 | 0.0401 | -0.0136 | -0.027 | -0.0589 | 0.0455 | 0.0051 | -0.0312 | -0.0455 | -0.0258 | 0.0069 | -0.0547 | -0.048 | 0.0592 | -0.0469 | -0.0456 | -0.0582 | -0.0609 | -0.0332
2 | Cc1c2c(nn1C)CSCc1cc(n(C)n1)CSc1cc(c3ccccc3c1)OCCCc1c(C(=O)O)n(C)c3c-2c(Cl)ccc13 [AZD5991] + C=CCn1c(=O)c2cnc(Nc3ccc(N4CCN(C)CC4)cc3)nc2n1-c1cccc(C(C)(C)O)n1 [AZD1775] (first compound max 1 µM, partner max 1 µM) | 0.0452 | 0.0087 | -0.0192 | 0.045 | -0.0145 | -0.0488 | 0.0139 | -0.0107 | 0.0696 | 0.0396 | -0.0116 | 0.0503 | -0.0046 | 0.0333 | -0.0288 | -0.0214 | 0.0581 | 0.0087 | 0.0183 | -0.0417
3 | COc1nnc2ccc(N3CCC(c4ccc(OCCN5CCN(C)C(=O)[C@H]5C)cc4)CC3)nn12 [AZD5153] + Cc1c2c(nn1C)CSCc1cc(n(C)n1)CSc1cc(c3ccccc3c1)OCCCc1c(C(=O)O)n(C)c3c-2c(Cl)ccc13 [AZD5991] (first compound max 1 µM, 7x7, partner max 1 µM) | -0.0333 | 0.0069 | -0.0432 | -0.112 | 0.0096 | -0.0918 | -0.0723 | -0.0013 | 0.0743 | -0.0657 | -0.0485 | 0.0934 | -0.0106 | -0.0383 | 0.0109 | -0.0081 | -0.0418 | -0.0295 | 0.0074 | 0.0698
4 | COc1nnc2ccc(N3CCC(c4ccc(OCCN5CCN(C)C(=O)[C@H]5C)cc4)CC3)nn12 [AZD5153] + CC1(C)CCC(CN2CCN(c3ccc(C(=O)NS(=O)(=O)c4ccc(NCC5CCOCC5)c([N+](=O)[O-])c4)c(Oc4cnc5[nH]ccc5c4)c3)CC2)=C(c2ccc(Cl)cc2)C1 [Venetoclax] (first compound max 1 µM, 7x7, partner max 1 µM) | -0.0621 | -0.0566 | -0.032 | -0.0657 | 0.0085 | -0.0659 | 0.0178 | -0.0613 | 0.0248 | -0.0688 | -0.054 | -0.0452 | -0.0584 | -0.0571 | -0.077 | -0.0428 | -0.0464 | -0.106 | -0.0424 | -0.0335
5 | CN(CCO)CC[C@H](CSc1ccccc1)Nc1ccc(S(=O)(=O)NC(=O)c2ccc(N3CCC([C@@H](O)c4ccccc4-c4ccc(Cl)cc4)CC3)cc2)cc1S(=O)(=O)C(F)(F)F [AZD4320] + C=CCn1c(=O)c2cnc(Nc3ccc(N4CCN(C)CC4)cc3)nc2n1-c1cccc(C(C)(C)O)n1 [AZD1775] (first compound max 1 µM, partner max 1 µM) | 0.0261 | 0.0362 | 0.0569 | -0.0268 | 0.0423 | -0.0429 | 0.165 | 0.0848 | 0.136 | -0.0701 | -0.0198 | -0.0315 | -0.0254 | 0.064 | 0.0773 | -0.0196 | -0.0047 | -0.0244 | -0.0059 | -0.0116
6 | NC1(C(=O)N[C@@H](CCO)c2ccc(Cl)cc2)CCN(c2ncnc3[nH]ccc23)CC1 [Capivasertib] + COc1nnc2ccc(N3CCC(c4ccc(OCCN5CCN(C)C(=O)[C@H]5C)cc4)CC3)nn12 [AZD5153] (first compound max 10 µM, 7x7, partner max 1 µM) | 0.0268 | 0.105 | -0.0511 | -0.0289 | 0.0061 | -0.0345 | -0.027 | 0.024 | 0.0708 | 0.0183 | -0.0176 | -0.0154 | 0.117 | 0.0477 | -0.0386 | 0.0234 | -0.0062 | -0.0366 | 0.0156 | 0.009
7 | COc1nnc2ccc(N3CCC(c4ccc(OCCN5CCN(C)C(=O)[C@H]5C)cc4)CC3)nn12 [AZD5153] + Cn1cnc2c(F)c(Nc3ccc(Br)cc3Cl)c(C(=O)NOCCO)cc21 [Selumetinib] (first compound max 1 µM, 7x7, partner max 10 µM) | -0.0548 | 0.0646 | -0.0311 | -0.0095 | -0.0277 | -0.0703 | -0.0232 | 0.0497 | 0.0419 | -0.0065 | 0.0649 | -0.0254 | -0.0235 | -0.0443 | 0.0002 | -0.0127 | 0.0093 | -0.0074 | -0.0291 | -0.008
8 | C[C@@H]1COCCN1c1cc(C2([S@](C)(=N)=O)CC2)nc(-c2ccnc3[nH]ccc23)n1 [AZD6738] + O=C(c1cc(Cc2n[nH]c(=O)c3ccccc23)ccc1F)N1CCN(C(=O)C2CC2)CC1 [Olaparib] (first compound max 10 µM, 7x7, partner max 10 µM) | 0.0743 | 0.0052 | -0.0539 | -0.0357 | 0.0682 | 0.0273 | -0.0067 | 0.003 | 0.0666 | 0.0123 | -0.0049 | 0.023 | -0.0085 | 0.0121 | 0.0046 | -0.0284 | -0.0082 | 0.0176 | 0.0257 | 0.0221
9 | Cn1cnc2c(F)c(Nc3ccc(Br)cc3Cl)c(C(=O)NOCCO)cc21 [Selumetinib] + CCN(CCO)CCCOc1ccc2c(Nc3cc(CC(=O)Nc4cccc(F)c4)[nH]n3)ncnc2c1 [AZD2811] (first compound max 10 µM, 7x7, partner max 1 µM) | -0.0349 | -0.0214 | 0.0206 | -0.0398 | -0.0196 | 0.0248 | 0.013 | -0.0731 | -0.094 | -0.0459 | 0.0101 | -0.0013 | -0.0252 | -0.0245 | -0.0998 | -0.0464 | -0.0196 | 0.0055 | -0.0111 | 0.015
10 | CC(=O)c1c(C)c2cnc(Nc3ccc(N4CCNCC4)cn3)nc2n(C2CCCC2)c1=O [Palbociclib] + Cc1c2c(nn1C)CSCc1cc(n(C)n1)CSc1cc(c3ccccc3c1)OCCCc1c(C(=O)O)n(C)c3c-2c(Cl)ccc13 [AZD5991] (first compound max 10 µM, 7x7, partner max 1 µM) | 0.0001 | -0.0134 | -0.0221 | -0.0746 | -0.0791 | 0.0338 | -0.0598 | -0.0568 | 0.0435 | -0.0328 | 0.0565 | 0.0142 | -0.0419 | -0.0698 | 0.0052 | -0.0372 | -0.0168 | -0.0822 | -0.0224 | -0.0282
11 | CCN(CCO)CCCOc1ccc2c(Nc3cc(CC(=O)Nc4cccc(F)c4)[nH]n3)ncnc2c1 [AZD2811] + C=CCn1c(=O)c2cnc(Nc3ccc(N4CCN(C)CC4)cc3)nc2n1-c1cccc(C(C)(C)O)n1 [AZD1775] (first compound max 1 µM, partner max 1 µM) | 0.032 | 0.064 | -0.0349 | -0.0465 | -0.0082 | 0.015 | -0.004 | -0.0093 | -0.0021 | 0.0107 | -0.037 | -0.0289 | -0.0231 | -0.0121 | 0.0565 | 0.018 | 0.0099 | -0.0295 | -0.0039 | 0.0157
12 | CN(CCO)CC[C@H](CSc1ccccc1)Nc1ccc(S(=O)(=O)NC(=O)c2ccc(N3CCC([C@@H](O)c4ccccc4-c4ccc(Cl)cc4)CC3)cc2)cc1S(=O)(=O)C(F)(F)F [AZD4320] + C[C@@H](Nc1cc(F)cc(F)c1)c1cc(C(=O)N(C)C)cc2c(=O)cc(N3CCOCC3)oc12 [AZD8186] (first compound max 1 µM, 7x7, partner max 3 µM) | -0.0831 | 0.025 | 0.0234 | 0.0504 | 0.0326 | -0.0964 | 0.0667 | -0.0108 | 0.0229 | 0.0135 | 0.0755 | 0.0471 | -0.0197 | -0.0189 | 0.0411 | 0.0221 | 0.0468 | 0.0003 | 0.007 | 0.0326
